These results are taken from PubChem BioAssay AID1508612.

In general, Papp refers to a coefficient for how fast a substance crosses the barrier. Lower therefore signals slow passage.

Structures are written as SMILES. A value given as a limit tells only on which side of the number the result lay.

The nature of this series: passive permeability, PAMPA, ADME assay (AID 1508612). As to conditions: pH 7.4, 30.0 min, 50.0 µM. In general terms: In PAMPA a lipid-coated filter parts donor from acceptor wells.
Regarding `CNc1oc(-c2ccc(-c3ccccc3)cc2)nc1C#N`, the Papp was over 1000 ×10⁻⁶ cm/s.

Take `CC(C)c1ccccc1-c1ncc(F)c(NCc2ccc(-n3ccnn3)cc2)n1`: the apparent permeability coefficient (Papp) is over 1000 ×10⁻⁶ cm/s. For the molecule `Fc1ccc(Nc2nc(-c3ccnc4ccccc34)nc3ccccc23)cc1F`, the apparent permeability (Papp) came to 202 ×10⁻⁶ cm/s. `CCN(CC)S(=O)(=O)c1ccc(N2CCCC2)c(NS(=O)(=O)c2ccc(C)cc2)c1` had a Papp of 253 ×10⁻⁶ cm/s.

As for `O=C(NCCCN1CCCC1=O)c1ccc(-c2ncc3cnc(-c4ccccc4)cn23)cc1`, the apparent permeability coefficient (Papp) amounted to 292 ×10⁻⁶ cm/s.

As to `O=C(C1CCN(c2nc(-c3ccc(Br)cc3)cs2)CC1)N1CCOCC1`, the Papp worked out at 236 ×10⁻⁶ cm/s.

For `NC(=O)C1CCN(c2nc(-c3cccc4sc5ccccc5c34)cs2)CC1`, the apparent permeability (Papp) is 364 ×10⁻⁶ cm/s. The molecule `CC(C)C(=O)Nc1cccc(NC(=O)c2cc3ccccc3o2)c1` had an apparent permeability coefficient (Papp) of 874 ×10⁻⁶ cm/s. On to `C#CC1(O)CCC2C3CCC4=C/C(=N/OCC(=O)NCC(=O)NC(C(=O)O)C(C)C)CC[C@]4(C)C3CC[C@@]21C` (some centres not stated), for which the apparent permeability (Papp) turned out to be 4.52 ×10⁻⁶ cm/s. For `CCN(CC)CCCCNc1ncc2cc(-c3c(Cl)cccc3Cl)c(NC(=O)NC(C)(C)C)nc2n1` the value was over 1000 ×10⁻⁶ cm/s; for `NC(=O)C1CCN(c2nc(-c3ccccc3[N+](=O)[O-])cs2)CC1`, 109 ×10⁻⁶ cm/s.

For `Nc1nc2c(s1)C(c1ccc(F)cc1F)CC(=O)N2` (configuration not stated), the Papp turned out to be 181 ×10⁻⁶ cm/s.

In turn, `O=C(c1nc(-c2cccnc2)c2ccccn12)N1CCOCC1` yielded an apparent permeability coefficient (Papp) of 206 ×10⁻⁶ cm/s.

Take `COc1ccc(NC(=O)c2c(C)cccc2C)cc1[S+](=O)([O-])N(C)C`: the Papp came out at 196 ×10⁻⁶ cm/s. `Cc1ccc(NS(=O)(=O)c2ccc3c(c2)NC(=O)CO3)cc1C` gave a Papp of 706 ×10⁻⁶ cm/s.

Regarding `NC(=O)c1cccc(-c2cc(Nc3ccc(OC(F)(F)F)cc3)ncn2)c1`, the apparent permeability coefficient (Papp) was 579 ×10⁻⁶ cm/s. For `Cn1nnnc1Sc1ncnc2scc(-c3cc4ccccc4o3)c12` the value was 936 ×10⁻⁶ cm/s; for `N#Cc1cccc(-c2csc(N3CCC(C(N)=O)CC3)n2)c1`, 450 ×10⁻⁶ cm/s; for `O=C(NCc1cccc(C(F)(F)F)c1)c1ccc(CN2CCCCC2)cc1`, over 1000 ×10⁻⁶ cm/s. The same measure for `O=c1cc(CSc2ccc(Cl)cc2)nc(-c2ccccn2)[nH]1`: over 1000 ×10⁻⁶ cm/s; for `COc1cc2nccc(Oc3ccc(NC(=O)Nc4cc(C)on4)c(Cl)c3)c2cc1OC`: 328 ×10⁻⁶ cm/s. As to `O=[N+]([O-])c1ccc(/C=N/n2c(CO)nc3ccccc32)s1`, the apparent permeability (Papp) is 269 ×10⁻⁶ cm/s. The molecule `O=C(Nc1ccc(-c2nc3cc(NC(=O)c4ccccc4Cl)ccc3o2)cc1)c1ccccc1Cl` registered an apparent permeability (Papp) of 176 ×10⁻⁶ cm/s.

Molecule `CN1CC=C(c2nc(Nc3ccc(F)c(F)c3)c3ccccc3n2)CC1` showed a Papp of over 1000 ×10⁻⁶ cm/s. The molecule `C[C@]12CC[C@@H]3[C@H](CCC4=CC(=O)CC[C@]43C)[C@]1(O)CC[C@@]2(O)C(=O)CO` registered a Papp of 30.8 ×10⁻⁶ cm/s.

As to `COc1ccc(-c2cc(-c3cccc(NC(C)=O)c3)cn3cncc23)cn1`, the Papp turned out to be 39 ×10⁻⁶ cm/s.

`COc1nccc(-c2nc(Nc3ccc(F)c(F)c3)c3ccccc3n2)c1OC` had an apparent permeability coefficient (Papp) of over 1000 ×10⁻⁶ cm/s. Molecule `O=C(c1cccs1)c1nonc1C(=O)c1cccs1` registered a Papp of 806 ×10⁻⁶ cm/s. The molecule `Cc1ccc(-c2csc(NC(=O)c3ccncc3NS(=O)(=O)c3ccc(C)cc3)n2)cc1` gave a Papp of 530 ×10⁻⁶ cm/s. Consider `CN1CCN(c2cc(-c3nc(Nc4ccc(F)c(F)c4)c4ccccc4n3)ccn2)CC1`, for which the Papp is over 1000 ×10⁻⁶ cm/s. Molecule `O=C1CCCC2=C1C(c1[nH]ncc1Cl)N=C(Nc1nc3cc([S+](=O)([O-])N4CCCC4)ccc3o1)N2` (configuration not stated) had a Papp of 47 ×10⁻⁶ cm/s. `Fc1cc(Nc2nc(-c3ccncc3)nc3ccccc23)ccc1-c1cn[nH]c1` had an apparent permeability coefficient (Papp) of 36.1 ×10⁻⁶ cm/s.

Regarding `O=C1C(SCCO)=C(SCCO)C(=O)c2ccccc21`, the Papp is 108 ×10⁻⁶ cm/s. As to `O=c1[nH]nc(Sc2ncc([N+](=O)[O-])s2)n1-c1ccc2c(c1)OCCO2`, the Papp worked out at 137 ×10⁻⁶ cm/s. On to `Cc1cccc(-n2ncc3c2CCCC3NC(=O)c2c(F)ccc(F)c2F)c1C` (configuration not stated), for which the Papp stood at 916 ×10⁻⁶ cm/s. Molecule `O=C(NCc1ccccc1)C1CCN(c2nc(-c3ccc(Br)cc3)cs2)CC1` yielded a Papp of 23.2 ×10⁻⁶ cm/s.

In turn, `O=C1CCc2cc(S(=O)(=O)Nc3ccc(F)c(Cl)c3)ccc2N1` had an apparent permeability coefficient (Papp) of 460 ×10⁻⁶ cm/s. In turn, `CCc1ccc(S(=O)(=O)Nc2cnccc2C(=O)Nc2nc(-c3ccccc3)cs2)cc1` yielded a Papp of 300 ×10⁻⁶ cm/s. The same measure for `O=[S+]([O-])(Nc1ccccc1)c1ccc(NCc2cccc(C(F)(F)F)c2F)cc1`: 306 ×10⁻⁶ cm/s; for `NC(=O)C1CCN(c2nc(-c3cccc(C(F)(F)F)c3)cs2)CC1`: 566 ×10⁻⁶ cm/s; for `Cc1ccc(S(=O)(=O)NCc2ccccc2)cc1`: 537 ×10⁻⁶ cm/s. As to `COc1ccc(-c2csc(N3CCC(C(N)=O)CC3)n2)cc1`, the Papp came to 646 ×10⁻⁶ cm/s.

As to `Cc1noc([C@@H]2CN(C(=O)c3nn(C)c4ccccc34)C[C@H]2CO)n1`, the Papp worked out at 84.2 ×10⁻⁶ cm/s.

In the case of `CC(C)Oc1ccc(-c2ccc(=O)n(CC(=O)NCCc3ccccc3)n2)cc1`, the Papp was over 1000 ×10⁻⁶ cm/s. In the case of `COc1ccc(CNC(=O)c2sc3nc(C)cc(C)c3c2N)cc1`, the Papp was over 1000 ×10⁻⁶ cm/s. Regarding `O=C1CCCC2=C1C(c1ccncc1Cl)N=C(Nc1nc3ccccc3o1)N2` (configuration not stated), the apparent permeability coefficient (Papp) amounted to 897 ×10⁻⁶ cm/s. Regarding `COC(=O)c1ccnc(-c2cc(C(=O)NCCc3ccccc3)ccn2)c1`, the Papp turned out to be 398 ×10⁻⁶ cm/s.
